# Results as given in paper PMC2853259 (Analytical biochemistry, 2010).
# Biological target: Paraoxonase 1 (PON1) (Homo sapiens, UniProt P27169)
# Assay type: cell-based
# Paraoxonase 1 (PON1), sequence (P27169 2-355): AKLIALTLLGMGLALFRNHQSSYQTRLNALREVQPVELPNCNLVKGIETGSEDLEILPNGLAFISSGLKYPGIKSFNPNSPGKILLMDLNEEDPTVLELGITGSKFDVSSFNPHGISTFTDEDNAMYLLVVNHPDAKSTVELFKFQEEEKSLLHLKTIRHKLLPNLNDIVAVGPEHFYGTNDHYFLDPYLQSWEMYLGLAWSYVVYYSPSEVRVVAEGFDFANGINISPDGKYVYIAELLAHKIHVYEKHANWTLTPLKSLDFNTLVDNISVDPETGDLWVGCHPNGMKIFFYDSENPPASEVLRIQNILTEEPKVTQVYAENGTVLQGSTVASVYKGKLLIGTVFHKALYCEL
smiles,measurement,value
"Oc1ccc2ccccc2n1 [2HQ, 2-hydroxyquinoline]",IC50,5.4 ± 3.6 µM
